Laboratory results from PubChem BioAssay (NCI).
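Growth conditions: 96-well plates. Treatment: test compound, 48 hours, 5 concentrations. Analysis: linear interpolation between bracketing concentrations; unreached endpoints set to highest concentration. At the TGI there is no net growth.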

Columns and labels:
Assay in all cases: inhibition of tumour cell growth, NCI panel, 48 h
[1] = system: M14 melanoma
[2] = system: OVCAR-4 ovarian
[3] = system: DMS 273 small cell lung
[4] = system: HT29 colon
[5] = system: SK-OV-3 ovarian
[6] = system: CCRF-CEM leukemia
[7] = system: EKVX NSCLC
[8] = system: ACHN renal
[9] = system: 786-0 renal
[10] = system: SN12C renal
[11] = system: UO-31 renal
[12] = system: TK-10 renal
[13] = system: LXFL 529 NSCLC
[14] = system: SK-MEL-28 melanoma
[15] = system: K-562 leukemia
[16] = system: SR leukemia
[17] = system: RXF-631 renal
[18] = system: DMS 114 small cell lung
[19] = system: IGROV1 ovarian
[20] = system: SNB-19 CNS
[21] = system: SK-MEL-5 melanoma
[22] = system: KM12 colon
[23] = system: A498 renal
[24] = system: HOP-92 NSCLC
[25] = system: SF-295 CNS
[26] = system: OVCAR-8 ovarian
[27] = system: SF-268 CNS
[28] = system: KM20L2 colon
[29] = system: OVCAR-5 ovarian
[30] = system: LOX IMVI melanoma
[31] = system: HOP-18 NSCLC
[32] = system: XF 498 CNS
[33] = system: U251 CNS
[34] = system: OVCAR-3 ovarian
[35] = system: UACC-257 melanoma
[36] = system: HCT-116 colon
[37] = system: UACC-62 melanoma
[38] = system: DLD-1 colon
[39] = system: HL-60(TB) leukemia
[40] = system: MOLT-4 leukemia
[41] = system: SNB-78 CNS
[42] = system: MALME-3M melanoma
[43] = system: RPMI-8226 leukemia
[44] = system: SW-620 colon
[45] = system: HCC-2998 colon
[46] = system: NCI-H460 lung
[47] = system: M19-MEL melanoma
[48] = system: SF-539 CNS
[49] = system: A549 NSCLC
[50] = system: HCT-15 colon
[51] = system: RXF 393 renal
[52] = system: HOP-62 NSCLC
[53] = system: COLO 205 colon
[54] = system: NCI-H23 lung
[55] = system: NCI-H522 lung
[56] = system: CAKI-1 renal
[57] = system: SNB-75 CNS
[58] = system: NCI-H226 lung
[59] = system: SK-MEL-2 melanoma

`COc1ccc(O)cc1C=O` showed a TGI [1] greater than 100 µM, a TGI [2] greater than 100 µM and a TGI [3] greater than 100 µM. It also gave a TGI [4] greater than 100 µM, a TGI [5] greater than 100 µM and a TGI [6] greater than 100 µM. It also gave a TGI [7] greater than 100 µM, a TGI [8] greater than 100 µM and a TGI [9] greater than 100 µM. It also gave a TGI [10] greater than 100 µM, a TGI [11] greater than 100 µM and a TGI [12] greater than 100 µM. It also gave a TGI [13] greater than 100 µM, a TGI [14] greater than 100 µM and a TGI [15] greater than 100 µM. The TGI [16] was 92.3 µM, the TGI [17] was greater than 100 µM and the TGI [18] was greater than 100 µM. For the same compound, the TGI [19] was greater than 100 µM, the TGI [20] was greater than 100 µM and the TGI [21] was greater than 100 µM. The TGI [22] was greater than 100 µM, the TGI [23] was greater than 100 µM and the TGI [24] was greater than 100 µM. For the same compound, the TGI [25] was greater than 100 µM, the TGI [26] was greater than 100 µM and the TGI [27] was greater than 100 µM. For the same compound, the TGI [28] was greater than 100 µM, the TGI [29] was greater than 100 µM and the TGI [30] was greater than 100 µM. For the same compound, the TGI [31] was greater than 100 µM, the TGI [32] was greater than 100 µM and the TGI [33] was greater than 100 µM. For the same compound, the TGI [34] was greater than 100 µM, the TGI [35] was greater than 100 µM and the TGI [36] was greater than 100 µM. For the same compound, the TGI [37] was greater than 100 µM, the TGI [38] was greater than 100 µM and the TGI [39] was 54.9 µM. It also gave a TGI [40] greater than 100 µM, a TGI [41] greater than 100 µM and a TGI [42] greater than 100 µM. The TGI [43] was greater than 100 µM, the TGI [44] was greater than 100 µM and the TGI [45] was greater than 100 µM. The TGI [46] was greater than 100 µM, the TGI [47] was greater than 100 µM and the TGI [48] was greater than 100 µM. For the same compound, the TGI [49] was greater than 100 µM, the TGI [50] was greater than 100 µM and the TGI [51] was greater than 100 µM. For the same compound, the TGI [52] was greater than 100 µM, the TGI [53] was greater than 100 µM and the TGI [54] was greater than 100 µM.

Work on `CCOC(=O)C1N(S(=O)(=O)c2ccc(C)cc2)CCC12C(c1ccc(OC)c(OC)c1)=Nc1ccccc12` (configuration not stated) yielded a TGI [1] greater than 100 µM, a TGI [2] greater than 100 µM and a TGI [3] greater than 100 µM. The TGI [4] was greater than 100 µM, the TGI [5] was greater than 100 µM and the TGI [55] was greater than 100 µM. It also gave a TGI [6] greater than 100 µM, a TGI [7] greater than 100 µM and a TGI [8] greater than 100 µM. The TGI [9] was greater than 100 µM, the TGI [10] was greater than 100 µM and the TGI [11] was greater than 100 µM. It also gave a TGI [12] greater than 100 µM, a TGI [13] greater than 100 µM and a TGI [14] greater than 100 µM. It also gave a TGI [15] greater than 100 µM, a TGI [17] greater than 100 µM and a TGI [56] greater than 100 µM. The TGI [18] was greater than 100 µM, the TGI [19] was greater than 100 µM and the TGI [20] was greater than 100 µM. For the same compound, the TGI [21] was greater than 100 µM, the TGI [22] was greater than 100 µM and the TGI [23] was greater than 100 µM. The TGI [24] was greater than 100 µM, the TGI [25] was greater than 100 µM and the TGI [26] was greater than 100 µM. For the same compound, the TGI [27] was greater than 100 µM, the TGI [28] was greater than 100 µM and the TGI [57] was greater than 100 µM. For the same compound, the TGI [29] was greater than 100 µM, the TGI [30] was greater than 100 µM and the TGI [31] was greater than 100 µM. For the same compound, the TGI [32] was greater than 100 µM, the TGI [33] was greater than 100 µM and the TGI [34] was greater than 100 µM. The TGI [35] was greater than 100 µM, the TGI [36] was greater than 100 µM and the TGI [37] was greater than 100 µM. It also gave a TGI [38] greater than 100 µM, a TGI [39] greater than 100 µM and a TGI [41] greater than 100 µM. For the same compound, the TGI [42] was greater than 100 µM, the TGI [43] was greater than 100 µM and the TGI [44] was greater than 100 µM. It also gave a TGI [45] greater than 100 µM, a TGI [46] greater than 100 µM and a TGI [47] greater than 100 µM. For the same compound, the TGI [48] was greater than 100 µM, the TGI [49] was greater than 100 µM and the TGI [51] was greater than 100 µM. It also gave a TGI [52] greater than 100 µM, a TGI [53] greater than 100 µM and a TGI [54] greater than 100 µM. For the same compound, the TGI [58] was greater than 100 µM.

`O=C(/C=C/c1ccccc1O)C(c1ccccc1)c1ccccc1` showed a TGI [1] greater than 100 µM, a TGI [2] greater than 100 µM and a TGI [3] greater than 100 µM. It also gave a TGI [4] greater than 100 µM, a TGI [5] greater than 100 µM and a TGI [55] greater than 100 µM. For the same compound, the TGI [6] was greater than 100 µM, the TGI [7] was greater than 100 µM and the TGI [59] was greater than 100 µM. It also gave a TGI [8] greater than 100 µM, a TGI [9] greater than 100 µM and a TGI [10] greater than 100 µM. For the same compound, the TGI [11] was greater than 100 µM, the TGI [12] was greater than 100 µM and the TGI [13] was greater than 100 µM. The TGI [14] was greater than 100 µM, the TGI [15] was greater than 100 µM and the TGI [16] was greater than 100 µM. The TGI [17] was greater than 100 µM, the TGI [56] was greater than 100 µM and the TGI [18] was greater than 100 µM. The TGI [19] was greater than 100 µM, the TGI [20] was greater than 100 µM and the TGI [21] was greater than 100 µM. The TGI [22] was greater than 100 µM, the TGI [23] was greater than 100 µM and the TGI [24] was greater than 100 µM. The TGI [25] was greater than 100 µM, the TGI [26] was greater than 100 µM and the TGI [27] was greater than 100 µM. The TGI [28] was greater than 100 µM, the TGI [57] was 75.1 µM and the TGI [29] was greater than 100 µM. The TGI [30] was 62.3 µM, the TGI [31] was greater than 100 µM and the TGI [32] was greater than 100 µM. The TGI [33] was greater than 100 µM, the TGI [34] was greater than 100 µM and the TGI [35] was greater than 100 µM. For the same compound, the TGI [36] was greater than 100 µM, the TGI [37] was greater than 100 µM and the TGI [38] was greater than 100 µM. The TGI [40] was greater than 100 µM, the TGI [41] was greater than 100 µM and the TGI [42] was greater than 100 µM. For the same compound, the TGI [43] was greater than 100 µM, the TGI [44] was 27.6 µM and the TGI [45] was greater than 100 µM. It also gave a TGI [46] greater than 100 µM, a TGI [47] greater than 100 µM and a TGI [48] greater than 100 µM. For the same compound, the TGI [49] was greater than 100 µM, the TGI [50] was greater than 100 µM and the TGI [51] was greater than 100 µM. It also gave a TGI [52] greater than 100 µM, a TGI [53] greater than 100 µM and a TGI [54] greater than 100 µM. It also gave a TGI [58] greater than 100 µM.
